# From US20250170127A1, “RE-SENSITIZING MULTIDRUG-RESISTANT (MDR) GRAM-NEGATIVE BACTERIA TO COLISTIN USING IONOPHORES” (The Regents of the University of Colorado, a body corporate, priority 2022, published 2025)
# Where two headings read alike, the source gives them in different places.
# Legend:
# E. coli AR-0493 [1] = experiment: Minimum re-sensitizing concentration (MRC) in the presence of colistin; type: cell-based; details: in the presence of 2 μg/mL colistin, E. coli AR-0493
# Method: These 10 compounds were tested for their MICs and minimum re-sensitizing concentrations (MRCs) in the presence colistin at 2 μg/mL in E. coli AR-0493.
# The present inventors further conducted MRC screens of selected compounds from groups 2-5 in AR-0493. Compound were tested against AR-0493 with compound X+2 μg/mL Colistin.
# All compounds were tested for their respective minimum resensitizing concentrations (MRCs) for colistin against E. coli. AR0493, a MDR strain from CDC and FDA Antibiotic Resistance Bank. […] For the symmetrical bisanilino series, 7a-p, electron-donating alkyl and alkoxy groups (entries 7a-g, Table 5) at various positions of the phenyl rings were investigated. […] Three asymmetric bisanilino analogs (7q-s, Table 5) were synthesized based on the SARs of the monoanilino analogs 8a-p (vide infra).
# (§1) General Methods. MDR strains E. coli AR-0493, AR-0346, and AR-0538, Salmonella Enteritidis AR-0496, Salmonella Typhimurium AR-0635, K. pneumoniae AR-0497, A. baumannii AR-0300 and AR-0310 were all obtained from the CDC & FDA Antibiotic Resistance Isolate Bank. E. coli K-12 was a gift from the Copley lab (Department of MCD Biology, University of Colorado Boulder). HeLa cells were purchased from the ATCC. All bacterial strains were grown on trypticase soy agar supplemented with 5% sheep blood (BAP). Bacteria were then cultured in Luria-Bertani (LB) medium at 35° C. until they achieve the log phase before screening or antimicrobial testing using CAMHB media. MIC, MRC, and checkerboard analyses and mammalian growth inhibition analyses in Hela cells were performed as described previously. More details are given in Supporting information.
# E. coli AR-0493 [2] = experiment: MIC, CLSI broth microdilution, substance alone; type: cell-based
# Method: A MDR E. coli strain AR-0493 (a.k.a., ATCC BAA-3170) was obtained from the CDC and FDA Antibiotic Resistance Bank and used for the initial screen. […] Considering the difficulties on the discovery of novel antimicrobial reagents against Gram-negative bacteria, we chose to screen the fragment-based library of 3,200 compounds from TimTec (Tampa, FL). […] The screen used a modified broth microdilution assay.
# These 10 compounds were tested for their MICs and minimum re-sensitizing concentrations (MRCs) in the presence colistin at 2 μg/mL in E. coli AR-0493. […] To evaluate their toxicity in mammalian cells, the present inventors treated human epithelial adenocarcinoma HeLa cells with each compound at a wide range of concentrations. […]
# as §1
# HeLa cells = experiment: in vitro; type: cell-based, human
# Method: These 10 compounds were tested for their MICs and minimum re-sensitizing concentrations (MRCs) in the presence colistin at 2 μg/mL in E. coli AR-0493. […] To evaluate their toxicity in mammalian cells, the present inventors treated human epithelial adenocarcinoma HeLa cells with each compound at a wide range of concentrations.
# To evaluate the mammalian toxicity of these analogs, Applicants tested them in cell viability assay using human cervical adenocarcinoma HeLa cells. Their respective half maximal growth inhibition concentration (GI50) was calculated using KaleidaGraph. The selectivity index (SI) for each compound was also calculated as the ratio of their GI50 and MRC. […] Therefore, Applicants selected two bisanilino analogs, 7l and 7m, that bear chlorines at the meta- and para-positions, respectively, of the phenyl groups for further characterization studies. […]. […] Their mammalian toxicities were also evaluated, and SIs calculated. […] Applicants we next explored the scope of analogs 71 and 7m their colistin-potentiating activity in 8 different MDR Gram negative bacteria with diverse genetic backgrounds and resistance mechanisms (Table 7). All strains were obtained from CDC and FDA Antibiotic Resistance Bank. For example, E. coli AR-0493 and K. pneumoniae AR-0497 carry the plasmid that contains the most prevalent mcr-1 gene. E. coli AR-0538, Salmonella Typhimurium AR-0539 and AR-0635 contain the mcr-2, 3, and 4 genes, respectively. These genes encode the phosphoethanolamine transferase, which was originated form the chromosome of A. baumannii, such as AR-0310. […]. A. baumannii AR-0310 appears more sensitive to these two compounds and the MICs of colistin was reduced to 0.25 μg/mL.
# as §1
# E. coli AR-0349 = experiment: MICs of a panel of 9 antibiotics with and without compound 3; type: cell-based; details: for INT (S-R interpretation): CLSI 2021, M100, Ed 31; for MIC: antibiotic alone, multidrug-resistant E. coli; for MIC (+3): in the presence of 1 μg/mL of compound 3
# [3] = Escherichia coli, AR0349, read-out: MIC
compound,measurement,setting,value
COc1ccc(Nc2nc3nonc3nc2Nc2ccc(OC)cc2)cc1 [Compound 7g],MRC (minimum re-sensitizing concentration),E. coli AR-0493 [1],>64 µg/mL
Cc1cccc(Nc2nc3nonc3nc2Nc2cccc(C)c2)c1 [Compound 7c],MIC,E. coli AR-0493 [2],>64 µg/mL
same,GI50,HeLa cells,1.5 µg/mL
same,MRC (minimum re-sensitizing concentration),E. coli AR-0493 [1],0.5 µg/mL
Cc1cccc(Nc2nc3nonc3nc2Nc2cccc(OC(F)(F)F)c2)c1 [Compound 7r],MIC,E. coli AR-0493 [2],>64 µg/mL
same,GI50,HeLa cells,12 µg/mL
same,MRC (minimum re-sensitizing concentration),E. coli AR-0493 [1],0.5 µg/mL
FC(F)(F)Oc1ccccc1Nc1nc2nonc2nc1Nc1ccccc1OC(F)(F)F [Compound 7n],MRC (minimum re-sensitizing concentration),E. coli AR-0493 [1],>64 µg/mL
"Cc1cccc(Nc2nc3nonc3nc2Cl)c1 [ST024336, reference compound]",GI50,"HeLa cells; HeLa cells, 24 hours",10 µg/mL
same,MRC (minimum re-sensitizing concentration),E. coli AR-0493 [1],2 µg/mL
same,MRC (minimum re-sensitizing concentration),E. coli AR-0493 [1]; listed as 1,> 64 µg/mL
COc1cccc(Nc2nc3nonc3nc2O)c1 [Compound 8f],MRC (minimum re-sensitizing concentration),E. coli AR-0493 [1],16 µg/mL
Gentamicin,INT (S-R interpretation),E. coli AR-0349,S
same,MIC,E. coli AR-0349,0.5 µg/mL
same,MIC (+3),E. coli AR-0349,0.5 µg/mL
Oc1nc2nonc2nc1Nc1cccc(OC(F)(F)F)c1 [Compound 8o],MIC,E. coli AR-0493 [2],>64 µg/mL
same,GI50,HeLa cells,24 µg/mL
same,MRC (minimum re-sensitizing concentration),E. coli AR-0493 [1],4 µg/mL
Cc1ccc(Nc2nc3nonc3nc2O)cc1 [Compound 8d],MRC (minimum re-sensitizing concentration),E. coli AR-0493 [1],64 µg/mL
COc1ccccc1Nc1nc2nonc2nc1Nc1cccc(OC(F)(F)F)c1 [Compound 7s],MRC (minimum re-sensitizing concentration),E. coli AR-0493 [1],>64 µg/mL
COc1cccc(Nc2nc3nonc3nc2Nc2cccc(OC)c2)c1 [Compound 7f],MRC (minimum re-sensitizing concentration),E. coli AR-0493 [1],2 µg/mL
Fc1cccc(Nc2nc3nonc3nc2Nc2cccc(F)c2)c1 [Compound 7i],MIC,E. coli AR-0493 [2],>64 µg/mL
same,GI50,HeLa cells,20 µg/mL
same,MRC (minimum re-sensitizing concentration),E. coli AR-0493 [1],0.5 µg/mL
Polymyxin B,INT (S-R interpretation),E. coli AR-0349,R
same,MIC,E. coli AR-0349,16 µg/mL
same,fold of potentiation,E. coli AR-0349; by 1 μg/mL of compound 3,16 fold
same,MIC (+3),E. coli AR-0349,1 µg/mL
CC[C@H]1OC(=O)[C@H](C)[C@@H](O[C@H]2C[C@@](C)(OC)[C@@H](O)[C@H](C)O2)[C@H](C)[C@@H](O[C@@H]2O[C@H](C)C[C@H](N(C)C)[C@H]2O)[C@](C)(O)C[C@@H](C)CN(C)[C@H](C)[C@@H](O)[C@]1(C)O [Azithromycin],INT (S-R interpretation),E. coli AR-0349,R
same,MIC,E. coli AR-0349; [3],> 64 µg/mL
same,MIC (+3),E. coli AR-0349,>64 µg/mL
Oc1nc2nonc2nc1Nc1ccccc1F [Compound 8h],MRC (minimum re-sensitizing concentration),E. coli AR-0493 [1],64 µg/mL
c1ccc(Nc2nc3nonc3nc2Nc2ccccc2)cc1 [Compound 7a],MIC,E. coli AR-0493 [2],>64 µg/mL
same,GI50,HeLa cells,4.4 µg/mL
same,MRC (minimum re-sensitizing concentration),E. coli AR-0493 [1],0.5 µg/mL
C[C@@H](O)[C@H]1C(=O)N2C(C(=O)O)=C(S[C@@H]3CN[C@H](C(=O)N(C)C)C3)[C@H](C)[C@H]12 [Meropenem],INT (S-R interpretation),E. coli AR-0349,S
same,MIC,E. coli AR-0349; [3],0.25 µg/mL
same,MIC (+3),E. coli AR-0349,0.25 µg/mL
Clc1ccccc1Nc1nc2nonc2nc1Nc1ccccc1Cl [Compound 7k],MRC (minimum re-sensitizing concentration),E. coli AR-0493 [1],8 µg/mL
Oc1nc2nonc2nc1Nc1ccccc1 [Compound 8a],MRC (minimum re-sensitizing concentration),E. coli AR-0493 [1],>64 µg/mL
Cc1ccccc1Nc1nc2nonc2nc1O [Compound 8b],MRC (minimum re-sensitizing concentration),E. coli AR-0493 [1],64 µg/mL
Oc1nc2nonc2nc1Nc1ccc(Cl)cc1 [Compound 8m],MRC (minimum re-sensitizing concentration),E. coli AR-0493 [1],32 µg/mL
Oc1nc2nonc2nc1Nc1ccccc1OC(F)(F)F [Compound 8n],MRC (minimum re-sensitizing concentration),E. coli AR-0493 [1],>64 µg/mL
CC(C)(O/N=C(\C(=O)N[C@@H]1C(=O)N2C(C(=O)[O-])=C(C[n+]3ccccc3)CS[C@H]12)c1csc(N)n1)C(=O)O [Ceftazidime],INT (S-R interpretation),E. coli AR-0349,R
same,MIC,E. coli AR-0349; [3],> 64 µg/mL
same,MIC (+3),E. coli AR-0349,>64 µg/mL
CN(C)[C@@H]1C(O)=C(C(N)=O)C(=O)[C@@]2(O)C(O)=C3C(=O)c4c(O)cccc4[C@@](C)(O)[C@H]3C[C@@H]12 [Tetracycline],INT (S-R interpretation),E. coli AR-0349,R
same,MIC,E. coli AR-0349; [3],> 64 µg/mL
same,MIC (+3),E. coli AR-0349,>64 µg/mL
COc1ccccc1Nc1nc2nonc2nc1Nc1ccccc1OC [Compound 7e],MRC (minimum re-sensitizing concentration),E. coli AR-0493 [1],>64 µg/mL
O=C(O)c1cn(C2CC2)c2cc(N3CCNCC3)c(F)cc2c1=O [Ciprofloxacin],MIC,E. coli AR-0349; [3],32 µg/mL
same,MIC (+3),E. coli AR-0349,32 µg/mL
Cc1ccccc1Nc1nc2nonc2nc1Nc1ccccc1C [Compound 7b],MRC (minimum re-sensitizing concentration),E. coli AR-0493 [1],8 µg/mL
Oc1nc2nonc2nc1Nc1ccccc1Cl [Compound 8k],MRC (minimum re-sensitizing concentration),E. coli AR-0493 [1],16 µg/mL
FC(F)(F)Oc1cccc(Nc2nc3nonc3nc2Nc2ccccc2)c1 [Compound 7q],MRC (minimum re-sensitizing concentration),E. coli AR-0493 [1],1 µg/mL
Oc1nc2nonc2nc1Nc1cccc(F)c1 [Compound 8i],MRC (minimum re-sensitizing concentration),E. coli AR-0493 [1],64 µg/mL
Oc1nc2nonc2nc1Nc1cccc(Cl)c1 [Compound 8l],MRC (minimum re-sensitizing concentration),E. coli AR-0493 [1],16 µg/mL
Fc1ccc(Nc2nc3nonc3nc2Nc2ccc(F)cc2)cc1 [Compound 7j],MIC,E. coli AR-0493 [2],>64 µg/mL
same,GI50,HeLa cells,9.4 µg/mL
same,MRC (minimum re-sensitizing concentration),E. coli AR-0493 [1],0.5 µg/mL
Cc1cccc(Nc2nc3nonc3nc2O)c1 [Compound 4],MIC,E. coli AR-0493 [2],did not show either antimicrobial or RMA activity
same,MRC (minimum re-sensitizing concentration),E. coli AR-0493 [1],did not show either antimicrobial or RMA activity
COc1ccc(Nc2nc3nonc3nc2O)cc1 [Compound 8g],MRC (minimum re-sensitizing concentration),E. coli AR-0493 [1],>64 µg/mL
Cc1cccc(Nc2nc3nonc3nc2O)c1 [Compound 8c],MRC (minimum re-sensitizing concentration),E. coli AR-0493 [1]; listed as 8c (2),8 µg/mL
COc1ccccc1Nc1nc2nonc2nc1O [Compound 8e],MIC,E. coli AR-0493 [2],>64 µg/mL
same,MRC (minimum re-sensitizing concentration),E. coli AR-0493 [1],4 µg/mL
Oc1nc2nonc2nc1Nc1ccc(F)cc1 [Compound 8j],MRC (minimum re-sensitizing concentration),E. coli AR-0493 [1],32 µg/mL
CO[C@H]1/C=C/O[C@@]2(C)Oc3c(C)c(O)c4c(O)c(c(/C=N/N5CCN(C)CC5)c(O)c4c3C2=O)NC(=O)/C(C)=C\C=C\[C@H](C)[C@H](O)[C@@H](C)[C@@H](O)[C@@H](C)[C@H](OC(C)=O)[C@@H]1C [Rifampicin],INT (S-R interpretation),E. coli AR-0349,R
same,MIC,E. coli AR-0349; [3],16 µg/mL
same,MIC (+3),E. coli AR-0349,16 µg/mL
